The structures appear in SMILES notation.

The test has as its target T1, human GR (Homo sapiens, UniProt P04150).
T1 construct: purchased Indigo Biosciences
T1 sequence (P04150 1-777): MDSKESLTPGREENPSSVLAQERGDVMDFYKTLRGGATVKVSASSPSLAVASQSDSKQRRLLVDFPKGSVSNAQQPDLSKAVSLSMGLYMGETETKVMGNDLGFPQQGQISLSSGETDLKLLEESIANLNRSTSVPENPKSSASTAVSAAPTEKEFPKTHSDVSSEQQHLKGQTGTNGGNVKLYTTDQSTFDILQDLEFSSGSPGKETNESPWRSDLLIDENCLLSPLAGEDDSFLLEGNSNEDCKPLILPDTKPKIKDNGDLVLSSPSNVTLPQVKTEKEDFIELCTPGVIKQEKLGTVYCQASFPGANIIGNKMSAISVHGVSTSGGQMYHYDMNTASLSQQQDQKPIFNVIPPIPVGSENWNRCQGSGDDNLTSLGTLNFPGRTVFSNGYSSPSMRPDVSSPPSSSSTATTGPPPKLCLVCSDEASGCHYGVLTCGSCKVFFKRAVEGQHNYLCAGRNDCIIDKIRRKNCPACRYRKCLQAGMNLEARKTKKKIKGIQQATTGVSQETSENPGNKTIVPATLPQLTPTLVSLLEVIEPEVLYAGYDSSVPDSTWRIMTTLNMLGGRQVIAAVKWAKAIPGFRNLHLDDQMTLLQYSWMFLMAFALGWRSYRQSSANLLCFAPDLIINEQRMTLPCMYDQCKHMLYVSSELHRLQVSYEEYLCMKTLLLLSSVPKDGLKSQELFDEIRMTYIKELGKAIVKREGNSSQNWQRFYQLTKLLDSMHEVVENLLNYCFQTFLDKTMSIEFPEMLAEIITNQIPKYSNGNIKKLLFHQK
The test is described as follows: human GR antagonist assay (Indigo Biosciences). It is filed as cell-based. An excerpt: The activity of a compound can be determined using various known methods. For example, GR assays can be used. Such GR assays include binding assays using, for example, cells transfected with the human glucocorticoid receptor (NR3C1). Several cell based model systems that allow sensitive detection and monitoring of steroids or other compounds with GR bioactivity are known. Most cell based GR reporter models use transgenic gene constructs that include a glucocorticoid response element (GRE) that controls reporter gene (e.g., lucifersrase) expression. For example, a human GR Reporter Assay System is commercially available from Indigo Biosciecnes. […] The principle application of such an assay product is to quantify functional activities, either agonist or antagonist, that a compound may exert against the human glucocorticoid receptor.
The activity of certain compounds were tested in a human GR antagonist assay (Indigo Biosciences).

As to `Cc1ncccc1NC(=O)c1ccc2c(c1)CCC1=C3C[C@H](O)C[C@]3(C)CC[C@]12Cc1ccccc1` [Compound A, (9S,13S,16R)-9-benzyl-16-hydroxy-13-methyl-N-(2-methylpyridin-3-yl)-7,9,11,12,13,15,16,17-octahydro-6H-cyclopenta[α]phenanthrene-3-carboxamide], the “IC50 (nM)” value (Table 1) is “No activity”. Moreover, for the setting “Table A”, the EC50 entry was “not active”. Also, the IC50 result (text of Example 2) is given as “not active”.
In turn, `CC#C[C@]1(O)CC[C@H]2[C@@H]3CCC4=CC(=O)CCC4=C3[C@@H](c3ccc(N(C)C)cc3)C[C@@]21C` [Mifepristone, reference compound] registered a HillSlope (Table 1) of 0.8706.

For the origin of these results see patent US20230212215A1, “GLUCOCORTICOID RECEPTOR MODULATORS” (TRUSTEES OF DARTMOUTH COLLEGE, priority 2020, published 2023).
